{
  "source": "patent US12667735B2",
  "about": "“Methods for reducing pain during photodynamic therapy of actinic keratosis” (Sun Pharmaceutical Industries, Inc., priority 2019, dated 2026)",
  "key": {"[1]": {"assay": "Daily home questionnaire of side effects, first 4 days after PDT", "format": "in vivo, human", "details": "for Pain Score Mean (0-10 visual-analog scale): average of 23 patients", "method": "(§1) Several secondary endpoints were also measured. For pain assessment, patients were asked every 5 to 10 min during illumination to report their pain on a 0 to 10 visual-analog (VAS) scale. Erythema was recorded photographically at Day 1 and on Day 4 post PDT. A side effect profile was recorded by each patient in a daily home questionnaire to document the presence or absence of eleven different signs and symptoms in the 4 days immediately following PDT (see Table 2)."}, "[2]": {"assay": "Erythema after PDT, recorded photographically", "format": "in vivo, human", "details": "1-4 days after PDT; majority of patients", "method": "as §1"}, "[3]": {"test_system": "actinic keratoses (AK) lesions of face and scalp", "assay": "AK lesion clearance, bilaterally controlled randomized clinical trial of ALA blue light PDT"}},
  "note": "Entries after “also recorded” stand apart in the source; their conditions may differ.",
  "data": [
    {"molecule": "NCC(=O)CCC(=O)O", "note": "[ALA, 5-aminolevulinic acid]", "values": [
      {"measurement": "Swelling", "setting": "[1]; Side A (test PDT), DAY 4", "value": "0, 0 percentage of patients"},
      {"measurement": "Pain Score Mean (0-10 visual-analog scale)", "setting": "[1]; Side A (test PDT), DAY 4", "value": "1.0, 1.0"},
      {"measurement": "Bleeding", "setting": "[1]; Side B (control PDT), DAY 1", "value": "0, 0 percentage of patients"},
      {"measurement": "Blisters", "setting": "[1]; Side B (control PDT), DAY 1", "value": "13, 13 percentage of patients"},
      {"measurement": "Burning", "setting": "[1]; Side B (control PDT), DAY 1", "value": "65, 65 percentage of patients"},
      {"measurement": "Crusting", "setting": "[1]; Side B (control PDT), DAY 1", "value": "4 percentage of patients"},
      {"measurement": "Itching", "setting": "[1]; Side B (control PDT), DAY 1", "value": "43, 43 percentage of patients"},
      {"measurement": "Open sores", "setting": "[1]; Side B (control PDT), DAY 1", "value": "0, 0 percentage of patients"},
      {"measurement": "Peeling", "setting": "[1]; Side B (control PDT), DAY 1", "value": "0 percentage of patients"},
      {"measurement": "Redness", "setting": "[1]; Side B (control PDT), DAY 1", "value": "91, 91 percentage of patients"},
      {"measurement": "Stinging", "setting": "[1]; Side B (control PDT), DAY 1", "value": "65, 65 percentage of patients"},
      {"measurement": "Swelling", "setting": "[1]; Side B (control PDT), DAY 1", "value": "22 percentage of patients"},
      {"measurement": "Pain Score Mean (0-10 visual-analog scale)", "setting": "[1]; Side B (control PDT), DAY 1", "value": 2.9},
      {"measurement": "Bleeding", "setting": "[1]; Side B (control PDT), DAY 2", "value": "0 percentage of patients"},
      {"measurement": "Blisters", "setting": "[1]; Side B (control PDT), DAY 2", "value": "9 percentage of patients"},
      {"measurement": "Burning", "setting": "[1]; Side B (control PDT), DAY 2", "value": "52, 52 percentage of patients"},
      {"measurement": "Crusting", "setting": "[1]; Side B (control PDT), DAY 2", "value": "17 percentage of patients"},
      {"measurement": "Itching", "setting": "[1]; Side B (control PDT), DAY 2", "value": "74, 74 percentage of patients"},
      {"measurement": "Open sores", "setting": "[1]; Side B (control PDT), DAY 2", "value": "9, 9 percentage of patients"},
      {"measurement": "Peeling", "setting": "[1]; Side B (control PDT), DAY 2", "value": "9 percentage of patients"},
      {"measurement": "Redness", "setting": "[1]; Side B (control PDT), DAY 2", "value": "100, 100 percentage of patients"},
      {"measurement": "Stinging", "setting": "[1]; Side B (control PDT), DAY 2", "value": "70, 70 percentage of patients"},
      {"measurement": "Swelling", "setting": "[1]; Side B (control PDT), DAY 2", "value": "26, 26 percentage of patients"},
      {"measurement": "Pain Score Mean (0-10 visual-analog scale)", "setting": "[1]; Side B (control PDT), DAY 2", "value": 2.4},
      {"measurement": "Bleeding", "setting": "[1]; Side B (control PDT), DAY 3", "value": "4 percentage of patients"},
      {"measurement": "Blisters", "setting": "[1]; Side B (control PDT), DAY 3", "value": "13 percentage of patients"},
      {"measurement": "Burning", "setting": "[1]; Side B (control PDT), DAY 3", "value": "35, 35 percentage of patients"},
      {"measurement": "Crusting", "setting": "[1]; Side B (control PDT), DAY 3", "value": "26 percentage of patients"},
      {"measurement": "Itching", "setting": "[1]; Side B (control PDT), DAY 3", "value": "65 percentage of patients"},
      {"measurement": "Open sores", "setting": "[1]; Side B (control PDT), DAY 3", "value": "9, 9 percentage of patients"},
      {"measurement": "Peeling", "setting": "[1]; Side B (control PDT), DAY 3", "value": "26 percentage of patients"},
      {"measurement": "Redness", "setting": "[1]; Side B (control PDT), DAY 3", "value": "87 percentage of patients"},
      {"measurement": "Stinging", "setting": "[1]; Side B (control PDT), DAY 3", "value": "39, 39 percentage of patients"},
      {"measurement": "Swelling", "setting": "[1]; Side B (control PDT), DAY 3", "value": "13 percentage of patients"},
      {"measurement": "Pain Score Mean (0-10 visual-analog scale)", "setting": "[1]; Side B (control PDT), DAY 3", "value": 1.5},
      {"measurement": "Bleeding", "setting": "[1]; Side B (control PDT), DAY 4", "value": "13 percentage of patients"},
      {"measurement": "Blisters", "setting": "[1]; Side B (control PDT), DAY 4", "value": "9 percentage of patients"},
      {"measurement": "Burning", "setting": "[1]; Side B (control PDT), DAY 4", "value": "26, 26 percentage of patients"},
      {"measurement": "Crusting", "setting": "[1]; Side B (control PDT), DAY 4", "value": "35, 35 percentage of patients"},
      {"measurement": "Itching", "setting": "[1]; Side B (control PDT), DAY 4", "value": "65, 65 percentage of patients"},
      {"measurement": "Open sores", "setting": "[1]; Side B (control PDT), DAY 4", "value": "4, 4 percentage of patients"},
      {"measurement": "Peeling", "setting": "[1]; Side B (control PDT), DAY 4", "value": "52 percentage of patients"},
      {"measurement": "Redness", "setting": "[1]; Side B (control PDT), DAY 4", "value": "74 percentage of patients"},
      {"measurement": "Stinging", "setting": "[1]; Side B (control PDT), DAY 4", "value": "35, 35 percentage of patients"},
      {"measurement": "Swelling", "setting": "[1]; Side B (control PDT), DAY 4", "value": "0, 0 percentage of patients"},
      {"measurement": "Pain Score Mean (0-10 visual-analog scale)", "setting": "[1]; Side B (control PDT), DAY 4", "value": "1.0, 1.0"},
      {"measurement": "Major inflammatory parameters, Side A versus Side B", "setting": "[1]; first 4 days post-treatment", "value": "no noticeable differences"},
      {"measurement": "Spotty erythema (inflamed AK lesions), Side A versus Side B", "setting": "[2]", "value": "approximately equal on Side A and Side B"},
      {"measurement": "Clinical response, Difference (A − B)", "setting": "[3]; Face, 30 min cohort", "value": "−1.7", "unit": "%"},
      {"measurement": "Clinical response (% reduction in AK counts at 3 months)", "setting": "[3]; Face, 30 min cohort, Side A (test PDT, 30 min blue light)", "value": 55.4, "unit": "%"},
      {"measurement": "Clinical response (% reduction in AK counts at 3 months)", "setting": "[3]; Face, 30 min cohort, Side B (control PDT)", "value": 57.1, "unit": "%"},
      {"measurement": "Clinical response, Difference (A − B)", "setting": "[3]; Face, 45 min cohort", "value": 1.1, "unit": "%"},
      {"measurement": "Clinical response (% reduction in AK counts at 3 months)", "setting": "[3]; Face, 45 min cohort, Side A (test PDT, 45 min blue light)", "value": 59.8, "unit": "%"},
      {"measurement": "Clinical response (% reduction in AK counts at 3 months)", "setting": "[3]; Face, 45 min cohort, Side B (control PDT)", "value": 58.6, "unit": "%"},
      {"measurement": "Clinical response, Difference (A − B)", "setting": "[3]; Face, 60 min cohort", "value": "−3.8", "unit": "%"},
      {"measurement": "Clinical response (% reduction in AK counts at 3 months)", "setting": "[3]; Face, 60 min cohort, Side A (test PDT, 60 min blue light)", "value": 57.5, "unit": "%"},
      {"measurement": "Clinical response (% reduction in AK counts at 3 months)", "setting": "[3]; Face, 60 min cohort, Side B (control PDT)", "value": 61.2, "unit": "%"},
      {"measurement": "Clinical response, Difference (A − B)", "setting": "[3]; Face, all patients", "value": "−1.4", "unit": "%"},
      {"measurement": "Clinical response (% reduction in AK counts at 3 months)", "setting": "[3]; Face, all patients, Side A (test PDT, substantially no pre-illumination gap)", "value": 57.7, "unit": "%"},
      {"measurement": "Clinical response (% reduction in AK counts at 3 months)", "setting": "[3]; Face, all patients, Side B (control PDT, 1 hr pre-illumination gap, blue light 1000 sec)", "value": 59.1, "unit": "%"},
      {"measurement": "Clinical response, Difference (A − B)", "setting": "[3]; Scalp, 30 min cohort", "value": "−1.2", "unit": "%"},
      {"measurement": "Clinical response (% reduction in AK counts at 3 months)", "setting": "[3]; Scalp, 30 min cohort, Side A (test PDT, 30 min blue light)", "value": 44.8, "unit": "%"},
      {"measurement": "Clinical response (% reduction in AK counts at 3 months)", "setting": "[3]; Scalp, 30 min cohort, Side B (control PDT)", "value": 46.0, "unit": "%"},
      {"measurement": "Clinical response, Difference (A − B)", "setting": "[3]; Scalp, 45 min cohort", "value": 3, "unit": "%"},
      {"measurement": "Clinical response (% reduction in AK counts at 3 months)", "setting": "[3]; Scalp, 45 min cohort, Side A (test PDT, 45 min blue light)", "value": 41.2, "unit": "%"},
      {"measurement": "Clinical response (% reduction in AK counts at 3 months)", "setting": "[3]; Scalp, 45 min cohort, Side B (control PDT)", "value": 38.2, "unit": "%"},
      {"measurement": "Clinical response, Difference (A − B)", "setting": "[3]; Scalp, 60 min cohort", "value": 3.7, "unit": "%"},
      {"measurement": "Clinical response (% reduction in AK counts at 3 months)", "setting": "[3]; Scalp, 60 min cohort, Side A (test PDT, 60 min blue light)", "value": 45.2, "unit": "%"},
      {"measurement": "Clinical response (% reduction in AK counts at 3 months)", "setting": "[3]; Scalp, 60 min cohort, Side B (control PDT)", "value": 41.5, "unit": "%"},
      {"measurement": "Clinical response, Difference (A − B)", "setting": "[3]; Scalp, all patients", "value": 1.9, "unit": "%"},
      {"measurement": "Clinical response (% reduction in AK counts at 3 months)", "setting": "[3]; Scalp, all patients, Side A (test PDT, substantially no pre-illumination gap)", "value": 43.8, "unit": "%"},
      {"measurement": "Clinical response (% reduction in AK counts at 3 months)", "setting": "[3]; Scalp, all patients, Side B (control PDT, 1 hr pre-illumination gap, blue light 1000 sec)", "value": 41.9, "unit": "%"},
      {"measurement": "Clinical efficacy (lesion clearance), test PDT versus control PDT", "setting": "[3]; face and scalp, 3 months, test of non-inferiority", "value": "nearly identical on both sides of the face and scalp; also recorded: statistically indistinguishable"}
    ]}
  ]
}
